Converted amounts (≈) assume the structure as drawn. Like-named read-outs stand apart in the source and are kept apart here.
Test system: 100 A. baumannii strains (50 MDR, 50 non-MDR)
Experiment: MIC broth microdilution at IHMA Europe, panel of 100 strains
Format: cell-based
Details: for MIC / MIC50 / MIC90: Acinetobacter baumannii; for MIC50: read-out: MIC 50; for MIC90: read-out: MIC 90

C[C@@H](O)[C@H]1C(=O)N2C(C(=O)O)=C(S[C@@H]3CN[C@H](C(=O)N(C)C)C3)[C@H](C)[C@H]12 [Meropenem, meropenem]
MIC (A. baumannii IHMA 2156709, Turkey 2020, MDR, read-out: MIC): > 16 µg/mL | MIC (A. baumannii IHMA 2157614, Australia 2020, Non-MDR, read-out: MIC): 0.25 µg/mL (≈ 0.652 µM) | MIC (A. baumannii IHMA 2177232, Lithuania 2020, MDR, read-out: MIC): > 16 µg/mL | MIC (A. baumannii IHMA 2177489, Lithuania 2020, MDR, read-out: MIC): > 16 µg/mL | MIC (A. baumannii IHMA 2178574, Ukraine 2020, Non-MDR, read-out: MIC): ≤ 0.06 µg/mL | MIC (A. baumannii IHMA 2180134, Malaysia 2020, Non-MDR, read-out: MIC): 0.25 µg/mL (≈ 0.652 µM) | MIC (A. baumannii IHMA 2180142, Malaysia 2020, MDR, read-out: MIC): > 16 µg/mL | MIC (A. baumannii IHMA 2181370, Morocco 2020, MDR, read-out: MIC): > 16 µg/mL | MIC (A. baumannii IHMA 2183729, Argentina 2020, MDR, read-out: MIC): > 16 µg/mL | MIC (A. baumannii IHMA 2183849, Argentina 2020, Non-MDR, read-out: MIC): 0.12 µg/mL (≈ 0.313 µM) | MIC (A. baumannii IHMA 2184382, Japan 2020, Non-MDR, read-out: MIC): 0.12 µg/mL (≈ 0.313 µM) | MIC (A. baumannii IHMA 2193375, Venezuela 2020, MDR, read-out: MIC): > 16 µg/mL | MIC (A. baumannii IHMA 2193485, Venezuela 2020, Non-MDR, read-out: MIC): 0.12 µg/mL (≈ 0.313 µM) | MIC (A. baumannii IHMA 2193607, Venezuela 2020, MDR, read-out: MIC): > 16 µg/mL | MIC (A. baumannii IHMA 2195460, Italy 2020, MDR, read-out: MIC): > 16 µg/mL | MIC (A. baumannii IHMA 2196914, South Africa 2020, MDR, read-out: MIC): > 16 µg/mL | MIC (A. baumannii IHMA 2196959, South Africa 2020, MDR, read-out: MIC): > 16 µg/mL | MIC (A. baumannii IHMA 2203763, Spain 2020, MDR, read-out: MIC): > 16 µg/mL | MIC (A. baumannii IHMA 2205144, Korea, South 2020, MDR, read-out: MIC): 16 µg/mL (≈ 41.7 µM) | MIC (A. baumannii IHMA 2206459, Taiwan 2020, MDR, read-out: MIC): > 16 µg/mL | MIC (A. baumannii IHMA 2206507, Taiwan 2020, Non-MDR, read-out: MIC): 0.12 µg/mL (≈ 0.313 µM) | MIC (A. baumannii IHMA 2212575, Hungary 2020, Non-MDR, read-out: MIC): 0.5 µg/mL (≈ 1.3 µM) | MIC (A. baumannii IHMA 2215307, Hong Kong 2020, Non-MDR, read-out: MIC): 0.25 µg/mL (≈ 0.652 µM) | MIC (A. baumannii IHMA 2216586, Taiwan 2020, MDR, read-out: MIC): > 16 µg/mL | MIC (A. baumannii IHMA 2223200, Colombia 2020, Non-MDR, read-out: MIC): 0.12 µg/mL (≈ 0.313 µM) | MIC (A. baumannii IHMA 2224017, Panama 2020, MDR, read-out: MIC): > 16 µg/mL | MIC (A. baumannii IHMA 2224303, Panama 2020, Non-MDR, read-out: MIC): 1 µg/mL (≈ 2.61 µM) | MIC (A. baumannii IHMA 2231797, Greece 2020, MDR, read-out: MIC): > 16 µg/mL | MIC (A. baumannii IHMA 2233099, Guatemala 2020, MDR, read-out: MIC): > 16 µg/mL | MIC (A. baumannii IHMA 2233430, Kazakhstan 2020, MDR, read-out: MIC): > 16 µg/mL | MIC (A. baumannii IHMA 2233548, Kazakhstan 2020, Non-MDR, read-out: MIC): 0.25 µg/mL (≈ 0.652 µM) | MIC (A. baumannii IHMA 2238964, Thailand 2020, MDR, read-out: MIC): > 16 µg/mL | MIC (A. baumannii IHMA 2239052, Thailand 2020, Non-MDR, read-out: MIC): 0.12 µg/mL (≈ 0.313 µM) | MIC (A. baumannii IHMA 2261047, Belgium 2020, MDR, read-out: MIC): > 16 µg/mL | MIC (A. baumannii IHMA 2261633, Canada 2020, Non-MDR, read-out: MIC): 0.12 µg/mL (≈ 0.313 µM) | MIC (A. baumannii IHMA 2274234, South Africa 2020, MDR, read-out: MIC): > 16 µg/mL | MIC (A. baumannii IHMA 2274364, South Africa 2020, MDR, read-out: MIC): > 16 µg/mL | MIC (A. baumannii IHMA 2275237, Chile 2020, Non-MDR, read-out: MIC): 0.25 µg/mL (≈ 0.652 µM) | MIC (A. baumannii IHMA 2275751, Jordan 2020, MDR, read-out: MIC): > 16 µg/mL | MIC (A. baumannii IHMA 2316205, United States 2020, MDR, read-out: MIC): > 16 µg/mL | MIC (MDR n = 50, read-out: MAX (maximum MIC; all strains inhibited)): > 16 µg/mL | MIC50 (MDR n = 50): > 16 µg/mL | MIC90 (MDR n = 50): > 16 µg/mL | MIC (MDR n = 50, read-out: MIN (minimum MIC)): 16 µg/mL (≈ 41.7 µM) | MIC (all isolates n = 100, read-out: MAX (maximum MIC; all strains inhibited)): > 16 µg/mL | MIC50 (all isolates n = 100): 1 µg/mL (≈ 2.61 µM) | MIC90 (all isolates n = 100): > 16 µg/mL | MIC (all isolates n = 100, read-out: MIN (minimum MIC)): ≤ 0.06 µg/mL | MIC (non-MDR n = 50, read-out: MAX (maximum MIC)): 1 µg/mL (≈ 2.61 µM) | MIC50 (non-MDR n = 50): 0.25 µg/mL (≈ 0.652 µM) | MIC90 (non-MDR n = 50): 0.25 µg/mL (≈ 0.652 µM) | MIC (non-MDR n = 50, read-out: MIN (minimum MIC)): ≤ 0.06 µg/mL | Percentage I (MDR n = 50): 0% | Percentage R (MDR n = 50): 100% | Percentage S (MDR n = 50): 0% | Percentage I (all n = 100, CLSI breakpoints): 0% | Percentage R (all n = 100, CLSI breakpoints): 50% | Percentage S (all n = 100, CLSI breakpoints): 50% | Percentage I (non-MDR n = 50): 0% | Percentage R (non-MDR n = 50): 0% | Percentage S (non-MDR n = 50): 100%
